The IC50 is the point on the concentration scale where inhibition reaches its midpoint.

This note sets out measurements from US20250163104A1, “MACROCYCLIC IMMUNOMODULATORS” (priority 2021, published 2025).

SMILES strings stand for the structures. Where a SMILES comes first, the peptide text is derived from it. Bridges are numbered along the chain shown (N, C = ends). [ ]: non-standard residue; d: D form. The star is where a group is joined. ξ: configuration not given here. Phe(4-COOH) = N[C@@H](Cc1ccc(C(=O)O)cc1)C(=O)O; Bip = N[C@@H](Cc1ccc(-c2ccccc2)cc1)C(=O)O; Phe(3-F) = N[C@@H](Cc1cccc(F)c1)C(=O)O; Phe(3-Me) = Cc1cccc(C[C@H](N)C(=O)O)c1; 4Pal = N[C@@H](Cc1ccncc1)C(=O)O; Cha = N[C@@H](CC1CCCCC1)C(=O)O; Cit = NC(=O)NCCC[C@H](N)C(=O)O; Gly(cPr) = N[C@H](C(=O)O)C1CC1; Thr(3ξ) = CC(O)[C@H](N)C(=O)O; Carboxymethyl = O=C(O)C*; Orn = NCCC[C@H](N)C(=O)O; Pra = C#CC[C@H](N)C(=O)O; Dab = NCC[C@H](N)C(=O)O; Dap = NC[C@H](N)C(=O)O

In this experiment the target is T1, human PD-1 / PD-L1-Ig binding on Jurkat cell line over-expressing human PD-1 (Jurkat-PD-1) (Homo sapiens, UniProt Q15116).
T1 construct: expressed in transfected cells; host or cells: Jurkat
T1 sequence (Q15116 25-288): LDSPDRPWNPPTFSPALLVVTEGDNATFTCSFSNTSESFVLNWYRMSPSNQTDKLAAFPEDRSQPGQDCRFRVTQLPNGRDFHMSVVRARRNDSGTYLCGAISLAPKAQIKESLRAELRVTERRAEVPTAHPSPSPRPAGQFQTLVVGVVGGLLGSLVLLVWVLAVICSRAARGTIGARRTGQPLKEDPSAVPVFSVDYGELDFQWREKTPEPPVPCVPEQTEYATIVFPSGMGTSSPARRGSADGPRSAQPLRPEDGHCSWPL
Briefly: Jurkat-PD-1 Cell Binding High-Content Screening Assay (CBA). Particulars: Jurkat-PD-1 cells, PE-labeled PD-L1-Ig 20 nM final; read-out: Jurkat HPD1_PDL1 IC50. The format is cell-based. Summed up:
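Cell-bound PE-labeled PD-L1-Ig (20 nM final, 1 h) measured by high-content imaging after fixation and Hoechst 33342 counterstain. Compound was applied first for 2 h at 37° C. to Jurkat cells over-expressing human PD-1 in DMEM with 10% FCS.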

Regarding `CC(C)C[C@@H]1NC(=O)[C@H](CCN)NC(=O)[C@@H](CC(C)C)NC(=O)[C@H](CCCN)NC(=O)[C@H](C(C)C)NC(=O)[C@H](Cc2ccc(-c3ccccc3)cc2)NC(=O)[C@H](C(C)C)NC(=O)[C@H](Cc2c[nH]c3ccccc23)NC(=O)[C@H](CC(=O)O)NC(=O)[C@H](Cc2ccc(OCC(=O)O)cc2)NC(=O)[C@H](Cc2ccncc2)NC(=O)CSC[C@@H](C(=O)N[C@@H](C)C(N)=O)NC(=O)[C@H]([C@@H](C)O)NC(=O)[C@H](C(C)C)NC1=O` [Compound 1051] ({CH2CO}-[4Pal]Y(Carboxymethyl)DWV[Bip]V[Orn][dL][Dab]LVTCA-NH2; thioether N-14), the IC50 turned out to be 5.2 nM.

Take `CC(C)C[C@H]1NC(=O)[C@H](CCCN)NC(=O)[C@H](CCC(=O)O)NC(=O)[C@H](Cc2ccc(-c3ccccc3)cc2)NC(=O)[C@H](C2CC2)NC(=O)[C@H](Cc2c[nH]c3ccccc23)NC(=O)[C@H](CC(=O)O)NC(=O)[C@H](Cc2ccc(OCC(=O)O)cc2)NC(=O)[C@H](CN)NC(=O)CSC[C@@H](C(=O)N[C@@H](C)C(N)=O)NC(=O)[C@H]([C@@H](C)O)NC(=O)[C@H](C(C)C)NC(=O)[C@H](CC2CCCCC2)NC(=O)[C@H](CCN)NC1=O` [Compound 1716] ({CH2CO}-[Dap]Y(Carboxymethyl)DW[Gly(cPr)][Bip]E[Orn][dL][Dab][Cha]VTCA-NH2; thioether N-14): the IC50 amounted to 24.9 nM.

Consider `CC(C)C[C@@H]1NC(=O)[C@H](Cc2c[nH]c3ccccc23)NC(=O)[C@H](CC(=O)O)NC(=O)[C@H](Cc2ccc(O)cc2)NC(=O)[C@H](Cc2ccccc2)NC(=O)CSC[C@@H](C(=O)N[C@@H](C)C(N)=O)NC(=O)[C@H]([C@@H](C)O)NC(=O)[C@H](C(C)C)NC(=O)[C@H](CC(C)C)NC(=O)[C@H](CC(N)=O)NC(=O)[C@@H](C)NC(=O)[C@H](CN)NC(=O)[C@H](C(C)C)NC(=O)[C@H](Cc2ccc(-c3ccccc3)cc2)NC1=O` [Compound 1076] ({CH2CO}-FYDWL[Bip]V[Dap][dA]NLVTCA-NH2; thioether N-14), for which the IC50 came out at 68.7 nM.

For `Cc1cccc(C[C@@H]2NC(=O)[C@H](CC(=O)O)NC(=O)[C@H](Cc3ccc(OCC(=O)O)cc3)NC(=O)[C@H](CN)NC(=O)CSC[C@@H](C(=O)N[C@@H](C)C(N)=O)NC(=O)[C@H]([C@@H](C)O)NC(=O)[C@H](C(C)C)NC(=O)[C@H](CC3CCCCC3)NC(=O)[C@H](Cc3cnc[nH]3)NC(=O)[C@@H](CC(C)C)NC(=O)[C@H](CCCN)NC(=O)[C@H](C(C)C)NC(=O)[C@H](Cc3ccc(-c4ccccc4)cc3)NC(=O)[C@H](C(C)C)NC2=O)c1` [Compound 1579], the IC50 worked out at 17.8 nM.

Regarding `CC(C)C[C@H]1NC(=O)[C@H](CCCN)NC(=O)[C@H](CCC(=O)O)NC(=O)[C@H](Cc2ccc(-c3ccccc3)cc2)NC(=O)[C@H](C(C)C)NC(=O)[C@H](Cc2c[nH]c3ccccc23)NC(=O)[C@H](CCC(=O)O)NC(=O)[C@H](Cc2ccc(OCC(=O)O)cc2)NC(=O)[C@H](CN)NC(=O)CSC[C@@H](C(=O)N[C@@H](C)C(N)=O)NC(=O)[C@H]([C@@H](C)O)NC(=O)[C@H](C(C)C)NC(=O)[C@H](CC2CCCCC2)NC(=O)[C@H](CCN)NC1=O` [Compound 2198] ({CH2CO}-[Dap]Y(Carboxymethyl)EWV[Bip]E[Orn][dL][Dab][Cha]VTCA-NH2; thioether N-14), the 50% inhibitory concentration (IC50) was 803 nM.

Consider `CC(C)C[C@H]1NC(=O)[C@H](CCCN)NC(=O)[C@H](C(C)C)NC(=O)[C@H](Cc2ccc(-c3ccccc3)cc2)NC(=O)[C@H](C(C)C)NC(=O)[C@H](Cc2c[nH]c3ccccc23)NC(=O)[C@H](CC(=O)O)NC(=O)[C@H](Cc2ccc(C(=O)O)cc2)NC(=O)[C@H](Cc2ccc(OCC(=O)O)cc2)NC(=O)CSC[C@@H](C(=O)N[C@@H](C)C(N)=O)NC(=O)[C@H]([C@@H](C)O)NC(=O)[C@H](C(C)C)NC(=O)[C@H](Cc2ccccc2)NC(=O)[C@H](CCN)NC1=O` [Compound 1662] ({CH2CO}-Y(Carboxymethyl)[Phe(4-COOH)]DWV[Bip]V[Orn][dL][Dab]FVTCA-NH2; thioether N-14), for which the IC50 was 27.4 nM.

Consider `Cc1cccc(C[C@@H]2NC(=O)[C@H](CC(N)=O)NC(=O)[C@H](Cc3ccc(C(=O)O)cc3)NC(=O)[C@H](CC(C)C)NC(=O)CSC[C@@H](C(=O)N[C@@H](CCN)C(N)=O)NC(=O)[C@H](CCC(=O)O)NC(=O)[C@H](C(C)C)NC(=O)[C@H](CC3CCCCC3)NC(=O)[C@H](CCN)NC(=O)[C@@H](CC(C)C)NC(=O)[C@H](CCCN)NC(=O)[C@H](Cc3ccc(C(=O)O)cc3)NC(=O)[C@H](Cc3ccc(-c4ccccc4)cc3)NC(=O)[C@H](Cc3ccc(C(=O)O)cc3)NC2=O)c1` [Example 2721] ({CH2CO}-L[Phe(4-COOH)]N[Phe(3-Me)][Phe(4-COOH)][Bip][Phe(4-COOH)][Orn][dL][Dab][Cha]VEC[Dab]-NH2; thioether N-14), for which the IC50 turned out to be 190 nM.

With `CC(C)C[C@H]1NC(=O)[C@H](CCCN)NC(=O)[C@H](C(C)C)NC(=O)[C@H](Cc2ccc(-c3ccccc3)cc2)NC(=O)[C@H](C(C)C)NC(=O)[C@H](Cc2c[nH]c3ccccc23)NC(=O)[C@H](CC(=O)O)NC(=O)[C@H](Cc2ccc(OCC(=O)O)cc2)NC(=O)[C@H](CN)NC(=O)CSC[C@@H](C(=O)N[C@@H](C)C(N)=O)NC(=O)[C@H]([C@@H](C)O)NC(=O)[C@H](C(C)C)NC(=O)[C@H](Cc2cccc(F)c2)NC(=O)[C@H](CCN)NC1=O` [Compound 1672] ({CH2CO}-[Dap]Y(Carboxymethyl)DWV[Bip]V[Orn][dL][Dab][Phe(3-F)]VTCA-NH2; thioether N-14), the IC50 was determined as 11.2 nM.

As for `CC(C)C[C@@H]1NC(=O)[C@H](CCN)NC(=O)[C@@H](CC(C)C)NC(=O)[C@H](CCN)NC(=O)[C@H](CCCNC(N)=O)NC(=O)[C@H](Cc2ccc(-c3ccccc3)cc2)NC(=O)[C@H](C(C)C)NC(=O)[C@H](Cc2c[nH]c3ccccc23)NC(=O)[C@H](CC(=O)O)NC(=O)[C@H](Cc2ccc(O)cc2)NC(=O)[C@H](CC(N)=O)NC(=O)CSC[C@@H](C(=O)NCC(N)=O)NC(=O)[C@H]([C@@H](C)O)NC(=O)[C@H](C(C)C)NC1=O` [Compound 1117] ({CH2CO}-NYDWV[Bip][Cit][Dab][dL][Dab]LVTCG-NH2; thioether N-14), the IC50 amounted to 39.3 nM.

Consider `C#CC[C@H](NC(=O)[C@H](CCN)NC(=O)[C@@H]1CSCC(=O)N[C@@H](CC(C)C)C(=O)N[C@@H](Cc2ccc(OCC(=O)O)cc2)C(=O)N[C@@H](CC(=O)O)C(=O)N[C@@H](Cc2cccc(C)c2)C(=O)N[C@@H](Cc2ccc(OCC(=O)O)cc2)C(=O)N[C@@H](Cc2ccc(-c3ccccc3)cc2)C(=O)N[C@@H](Cc2ccc(OCC(=O)O)cc2)C(=O)N[C@@H](CCCN)C(=O)N[C@H](CC(C)C)C(=O)N[C@@H](CCN)C(=O)N[C@@H](CC2CCCCC2)C(=O)N[C@@H](C(C)C)C(=O)N[C@@H](CCC(=O)O)C(=O)N1)C(=O)O` [Compound 2707] ({CH2CO}-LY(Carboxymethyl)D[Phe(3-Me)]Y(Carboxymethyl)[Bip]Y(Carboxymethyl)[Orn][dL][Dab][Cha]VEC[Dab][Pra]-OH; thioether N-14), for which the IC50 came out at 5 nM.

On to `CC(C)C[C@H]1NC(=O)[C@H](CCCN)NC(=O)[C@H](CCCNC(N)=O)NC(=O)[C@H](Cc2ccc(-c3ccccc3)cc2)NC(=O)[C@H](C(C)C)NC(=O)[C@H](Cc2c[nH]c3ccccc23)NC(=O)[C@H](CC(=O)O)NC(=O)[C@H](Cc2ccc(OCC(=O)O)cc2)NC(=O)[C@H](CCN)NC(=O)CSC[C@@H](C(=O)N[C@@H](CCN)C(N)=O)NC(=O)[C@H](C(C)O)NC(=O)[C@H](C(C)C)NC(=O)[C@H](CC2CCCCC2)NC(=O)[C@H](CCN)NC1=O` (stereo partly drawn) [Compound 2638] ({CH2CO}-[Dab]Y(Carboxymethyl)DWV[Bip][Cit][Orn][dL][Dab][Cha]V[Thr(3ξ)]C[Dab]-NH2; thioether N-14), for which the IC50 was 16.1 nM.

For the compound `CC[C@H](C)[C@@H]1NC(=O)[C@H](Cc2ccc(-c3ccccc3)cc2)NC(=O)[C@H](C(C)C)NC(=O)[C@H](Cc2c[nH]c3ccccc23)NC(=O)[C@H](CC(=O)O)NC(=O)[C@H](Cc2ccc(O)cc2)NC(=O)[C@H](Cc2ccccc2)NC(=O)CSC[C@@H](C(=O)N[C@@H](C)C(N)=O)NC(=O)[C@H]([C@@H](C)O)NC(=O)[C@H](C(C)C)NC(=O)[C@H](CC(C)C)NC(=O)[C@H](CCCNC(=N)N)NC(=O)[C@@H](CC(C)C)NC(=O)[C@H](CCCN)NC1=O` [Compound 1144] ({CH2CO}-FYDWV[Bip]I[Orn][dL]RLVTCA-NH2; thioether N-14), the IC50 amounted to 19.2 nM.

On to `Cc1cccc(C[C@@H]2NC(=O)[C@H](CC(=O)O)NC(=O)[C@H](Cc3ccc(OCC(=O)O)cc3)NC(=O)[C@H](CN)NC(=O)CSC[C@@H](C(=O)N[C@@H](C)C(N)=O)NC(=O)[C@H](Cc3cnc[nH]3)NC(=O)[C@H](C(C)C)NC(=O)[C@H](CC3CCCCC3)NC(=O)[C@H](CCN)NC(=O)[C@@H](CC(C)C)NC(=O)[C@H](CCCN)NC(=O)[C@H](C(C)C)NC(=O)[C@H](Cc3ccc(-c4ccccc4)cc3)NC(=O)[C@H](C(C)C)NC2=O)c1` [Compound 1757] ({CH2CO}-[Dap]Y(Carboxymethyl)D[Phe(3-Me)]V[Bip]V[Orn][dL][Dab][Cha]VHCA-NH2; thioether N-14), for which the IC50 came out at 13.2 nM.

Regarding `CC[C@H](C)[C@@H]1NC(=O)[C@H](Cc2c[nH]c3ccccc23)NC(=O)[C@H](CC(=O)O)NC(=O)[C@H](Cc2ccc(OCC(=O)O)cc2)NC(=O)[C@H](CN)NC(=O)CSC[C@@H](C(=O)N[C@@H](C)C(N)=O)NC(=O)[C@H]([C@@H](C)O)NC(=O)[C@H](C(C)C)NC(=O)[C@H](CC2CCCCC2)NC(=O)[C@H](CCN)NC(=O)[C@@H](CC(C)C)NC(=O)[C@H](CCCN)NC(=O)[C@H]([C@@H](C)CC)NC(=O)[C@H](Cc2ccc(-c3ccccc3)cc2)NC1=O` [Compound 1725] ({CH2CO}-[Dap]Y(Carboxymethyl)DWI[Bip]I[Orn][dL][Dab][Cha]VTCA-NH2; thioether N-14), the IC50 was found to be 24.7 nM.
